Experimental data: publication PMC5531494, “Target specificity, in vivo pharmacokinetics, and efficacy of the putative STAT3 inhibitor LY5 in osteosarcoma, Ewing's sarcoma, and rhabdomyosarcoma” (PLoS ONE, 2017)

Assays:
[1] = Toxicity / tolerability in mice; assay type: in vivo
Experimental: Single-dose toxicity studies in mice were performed to identify the maximum tolerated dose of LY5. Additionally, 30 ICR mice (Harlan Laboratories, Indianapolis, IN) were divided into 3 groups to be dosed with 5 mg/kg LY5 (2 mg/ml) by oral (PO), intraperitoneal (IP) or intravenous (IV) routes to establish oral bioavailability. Animals were euthanized and blood was collected at allocated time points (5, 10, 20, 30 and 60 minutes, 2, 4, 6, 8 and 24 hrs) after LY5 administration, plasma was separated by centrifugation and frozen immediately on dry ice. Samples were stored at -80° C prior to analysis.

[2] = system: RH30, ES-3, ES-7, EW-8 cells; assay: Combined STAT3 knockdown-LY5 cell viability assay (Alamar Blue); assay type: cell-based, human; conditions: NC siRNA or STAT3 siRNA 48 hrs, then 0.5 μM or 1 μM LY5 48 hrs
Experimental: Cell lines were transfected with 10 nM of AllStars negative control siRNA or human STAT3-targeting siRNA #7 (5’-[…]-3’) (Qiagen, Germantown, MD) using Lipofectamine RNAiMAX (Life Technologies, Carlsbad, CA) according to the manufacturer’s instructions. After 72 hrs of transfection, cells were harvested and lysed for immunoblotting. For the combined STAT3 knockdown–LY5 cell viability assay, negative control siRNA or STAT3 siRNA #7 was transfected into cell lines. After 48 hrs, cells were treated with 0.5 μM or 1 μM of LY5 for another 48 hrs. Cell viability was then analyzed using Alamar Blue as described above.
Fig 6 Effects of LY5 are not mediated via STAT3 inhibition. (A) Antitumor activity of LY5 against OS-1 PDX model of OS. […] After 72 hours of transfection, cells were harvested and analyzed for total (T) STAT3 and GAPDH protein expression by immunoblotting. […] Cell viability was then determined using Alamar Blue staining. […]
(A) ES cell line ES-3 was transfected with either negative control siRNA (NC siRNA) or STAT3-targeting siRNA #7. After 72 hrs of transfection, cells were harvested and analyzed for total (T) STAT3 and GAPDH protein expression by immunoblotting. […] Cell viability was evaluated using Alamar Blue staining. […]

[3] = Protein binding in mice; assay type: in vitro ADME
[4] = molecular target: T1, polo-like kinase 3 (PLK3) (Homo sapiens, UniProt Q9H4B4); assay: KINOMESCAN binding, PLK3; conditions: 5 μM LY5
T1 construct: purchased KINOMESCAN (www.kinomescan.com)
T1 sequence (Q9H4B4 whole entry): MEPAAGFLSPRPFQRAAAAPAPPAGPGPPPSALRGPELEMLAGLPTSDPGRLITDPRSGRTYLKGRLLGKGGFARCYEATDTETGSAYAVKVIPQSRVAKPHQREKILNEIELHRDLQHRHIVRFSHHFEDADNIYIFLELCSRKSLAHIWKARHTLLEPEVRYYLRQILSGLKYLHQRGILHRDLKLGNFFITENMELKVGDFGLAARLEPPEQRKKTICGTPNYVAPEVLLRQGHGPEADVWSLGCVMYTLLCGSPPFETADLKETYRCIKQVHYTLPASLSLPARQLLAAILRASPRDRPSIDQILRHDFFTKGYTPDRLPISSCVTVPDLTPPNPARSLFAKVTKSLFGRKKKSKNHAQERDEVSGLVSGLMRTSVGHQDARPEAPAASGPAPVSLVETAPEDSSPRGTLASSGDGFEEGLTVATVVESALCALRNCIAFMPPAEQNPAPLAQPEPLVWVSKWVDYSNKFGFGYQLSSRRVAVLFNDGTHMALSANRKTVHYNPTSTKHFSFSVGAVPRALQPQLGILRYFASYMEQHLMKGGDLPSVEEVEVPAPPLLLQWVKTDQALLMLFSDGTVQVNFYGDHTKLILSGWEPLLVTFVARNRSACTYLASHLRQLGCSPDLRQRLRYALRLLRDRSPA
Experimental: To determine the specificity of STAT blockade, we asked whether LY5 affected the phosphorylation of other family members including STAT1, STAT2, STAT4, and STAT6 [30–32]. […] To further define any potential off-target effects, we profiled the direct (steric) or indirect (allosteric) binding of LY5 to the binding sites of 96 human protein or lipid kinases (KINOMESCAN, www.kinomescan.com).
Supplementary file pone.0181885.s001.pdf: S1 Fig Kinomescan results for LY5. […] At 5 μM LY5 (B), only interaction with PLK3 was identified, mapped S-score (35) = 0.01. (PDF) Click here for additional data file.

[5] = molecular target: T2, STAT6 (Homo sapiens, UniProt P42226); assay: Cytokine-induced STAT6 phosphorylation in SJSA cells, Western blot; assay type: cell-based; conditions: induced by IFN-γ, IFN-α, or IL-4
T2 construct: endogenous in cells; host or cells: SJSA
T2 sequence (P42226 whole entry): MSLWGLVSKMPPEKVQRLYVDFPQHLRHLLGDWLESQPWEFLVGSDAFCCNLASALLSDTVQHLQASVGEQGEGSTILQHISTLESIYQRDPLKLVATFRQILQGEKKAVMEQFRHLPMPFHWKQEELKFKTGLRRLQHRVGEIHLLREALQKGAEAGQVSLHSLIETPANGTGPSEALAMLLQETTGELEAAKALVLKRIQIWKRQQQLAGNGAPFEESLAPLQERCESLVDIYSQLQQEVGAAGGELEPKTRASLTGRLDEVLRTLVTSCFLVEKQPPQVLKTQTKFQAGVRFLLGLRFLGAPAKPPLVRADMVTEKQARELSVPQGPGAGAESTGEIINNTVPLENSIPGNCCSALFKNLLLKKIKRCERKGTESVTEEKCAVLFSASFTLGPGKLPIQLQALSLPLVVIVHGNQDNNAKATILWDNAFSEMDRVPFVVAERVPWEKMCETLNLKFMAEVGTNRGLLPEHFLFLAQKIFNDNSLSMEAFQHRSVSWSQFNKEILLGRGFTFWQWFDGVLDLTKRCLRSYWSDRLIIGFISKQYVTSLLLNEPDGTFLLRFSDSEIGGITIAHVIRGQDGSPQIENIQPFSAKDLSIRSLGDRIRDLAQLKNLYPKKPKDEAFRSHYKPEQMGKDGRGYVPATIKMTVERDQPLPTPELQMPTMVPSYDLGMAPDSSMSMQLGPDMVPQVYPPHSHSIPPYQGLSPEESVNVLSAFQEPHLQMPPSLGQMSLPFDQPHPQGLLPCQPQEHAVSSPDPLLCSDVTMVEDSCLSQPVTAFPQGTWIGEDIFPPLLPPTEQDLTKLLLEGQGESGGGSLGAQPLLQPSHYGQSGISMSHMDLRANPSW
Experimental: Cell lysis, protein isolation and immunoblotting were performed as described previously. Twenty micrograms of protein were resolved using 4–12% Bis-Tris polyacrylamide gels. Gels were transferred to PVDF membranes and subjected to blocking and incubation with primary and secondary antibodies. The primary antibodies used in this study included: phospho-STAT3 (Tyr705, Cell Signaling, Boston, MA and Abcam, Cambridge, MA), total STAT3 (Cell Signaling and Abcam), phospho-STAT1 (Cell Signaling), total STAT1 (Cell Signaling), phospho-STAT2 (Cell Signaling), phospho-STAT4 (Cell Signaling), phospho-STAT6 (Cell Signaling), and GAPDH (Cell Signaling). Protein bands were detected using Western Lightning ® Plus Enhanced Chemiluminescence substrate (Perkin Elmer, Waltham, MA) and HyBlot CL ® Autoradiography film (Denville Scientific, Holliston, MA). The cytokines used in this study included: interferon gamma (IFN-γ, Cell Signaling), interferon alpha (IFN-α, Cell Signaling), interleukin-4 (IL-4, Cell Signaling), interleukin-6 (IL-6, Cell Signaling), and oncostatin M (OSM, Cell Signaling).
Fig 1 LY5 inhibits pSTAT3 in sarcoma cell lines. (A) The tumor cell lines RH30, EW8, and RD were treated with increasing concentrations of LY5 for 30 minutes. Cell lysates were collected for Western blotting of p-STAT3, total STAT3, and GAPDH. GAPDH was used as loading control. […]

[6] = Liver microsomal stability; assay type: in vitro ADME, canine; conditions: compared to mice; data not shown
From the text: The liquid chromatography-mass spectrometry system utilized for these analyses consisted of a Dionex Ultimate 3000 RSLCnano High Performance Liquid Chromatography system and a Thermo Finnigan Quantum Ultras EMR mass spectrometer with an electrospray ionization source. Positive ionization mode was used for both LY5 and the internal standard, hesperetin. Plasma samples were collected and analyzed by the OSU James Comprehensive Cancer Center Pharmacoanalytical Shared Resource. Pharsight Phoenix WinNonlin software using non-compartmental analysis was used to generate PK parameters including maximum plasma concentration (Cmax), amount of time that drug is present at Cmax (Tmax), and total area under the curve (AUC). AUC all and AUC last were calculated by linear trapezoidal method of concentration-time curve up to the last measured point. AUC inf-obs was calculated by log-linear extrapolation of the terminal phase beyond the last collection time. Bioavailability (F) was calculated for IP and PO administration routes. Plasma stability and liver microsomal stability of LY5 were also assessed through this shared resource.

NS(=O)(=O)c1cccc2c1C(=O)C=C(Nc1cccnc1)C2=O [LY5, 5,8-dioxo-6-(pyridin-3-ylamino)-5,8-dihydronaphthalene-1-sulfonamide]
tolerable dosing [1]: 40 mg/kg BID
toxicity ([1]; doses received via IV, oral, or IP routes): No toxicity was noted
response to LY5 (cell viability) with or without STAT3 depletion [2]: comparable
drug protein-bound [3]: Approximately 90%
binding to PLK3 [4]: binding
phosphorylation of STAT6 [5]: did not inhibit
stability when incubated with canine liver microsomes [6]: increased stability
